{
  "source": "patent US20220370466A1",
  "about": "“REGIMENS FOR TREATING HIV INFECTIONS AND AIDS” (ViiV Healthcare Company, priority 2017, published 2022)",
  "origin": "cited, not measured here",
  "key": {"BCRP": {"target": "T1, BCRP (Homo sapiens, UniProt Q9UNQ0)", "T1 sequence (Q9UNQ0 1-655)": "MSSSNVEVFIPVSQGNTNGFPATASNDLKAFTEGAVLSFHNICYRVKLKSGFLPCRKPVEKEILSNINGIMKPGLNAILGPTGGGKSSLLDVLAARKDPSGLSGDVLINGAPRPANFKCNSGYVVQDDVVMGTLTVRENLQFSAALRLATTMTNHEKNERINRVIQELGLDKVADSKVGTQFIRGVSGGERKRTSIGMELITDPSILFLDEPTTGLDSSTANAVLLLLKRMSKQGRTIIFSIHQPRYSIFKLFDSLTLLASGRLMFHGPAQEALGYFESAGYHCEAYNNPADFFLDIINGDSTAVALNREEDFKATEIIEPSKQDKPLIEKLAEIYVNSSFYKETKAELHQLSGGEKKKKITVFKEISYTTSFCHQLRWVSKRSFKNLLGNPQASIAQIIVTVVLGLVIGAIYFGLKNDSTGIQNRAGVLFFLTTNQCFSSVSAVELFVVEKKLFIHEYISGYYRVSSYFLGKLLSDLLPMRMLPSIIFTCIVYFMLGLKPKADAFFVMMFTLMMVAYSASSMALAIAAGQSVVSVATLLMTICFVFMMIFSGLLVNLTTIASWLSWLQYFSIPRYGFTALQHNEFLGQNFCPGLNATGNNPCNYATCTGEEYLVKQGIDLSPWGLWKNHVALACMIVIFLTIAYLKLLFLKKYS", "conditions": "in vitro"}, "UGT1A9": {"target": "T2, UGT1A9 (Homo sapiens, UniProt O60656)", "T2 sequence (O60656 26-530)": "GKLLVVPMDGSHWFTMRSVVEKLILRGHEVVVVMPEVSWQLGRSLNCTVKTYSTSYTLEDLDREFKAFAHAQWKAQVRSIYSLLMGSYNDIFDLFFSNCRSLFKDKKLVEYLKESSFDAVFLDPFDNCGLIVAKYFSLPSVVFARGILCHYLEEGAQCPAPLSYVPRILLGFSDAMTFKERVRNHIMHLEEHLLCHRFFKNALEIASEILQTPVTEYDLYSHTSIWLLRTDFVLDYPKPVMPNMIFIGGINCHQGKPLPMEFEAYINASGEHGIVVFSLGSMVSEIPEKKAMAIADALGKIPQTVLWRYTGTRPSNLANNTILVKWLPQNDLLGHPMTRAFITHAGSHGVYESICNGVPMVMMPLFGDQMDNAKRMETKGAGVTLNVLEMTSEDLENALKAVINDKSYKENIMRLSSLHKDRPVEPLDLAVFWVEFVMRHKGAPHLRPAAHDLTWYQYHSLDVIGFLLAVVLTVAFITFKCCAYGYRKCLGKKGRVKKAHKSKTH", "conditions": "in vitro"}, "UGT1A1": {"target": "T3, UGT1A1 (Homo sapiens, UniProt P22309)", "T3 sequence (P22309 26-533)": "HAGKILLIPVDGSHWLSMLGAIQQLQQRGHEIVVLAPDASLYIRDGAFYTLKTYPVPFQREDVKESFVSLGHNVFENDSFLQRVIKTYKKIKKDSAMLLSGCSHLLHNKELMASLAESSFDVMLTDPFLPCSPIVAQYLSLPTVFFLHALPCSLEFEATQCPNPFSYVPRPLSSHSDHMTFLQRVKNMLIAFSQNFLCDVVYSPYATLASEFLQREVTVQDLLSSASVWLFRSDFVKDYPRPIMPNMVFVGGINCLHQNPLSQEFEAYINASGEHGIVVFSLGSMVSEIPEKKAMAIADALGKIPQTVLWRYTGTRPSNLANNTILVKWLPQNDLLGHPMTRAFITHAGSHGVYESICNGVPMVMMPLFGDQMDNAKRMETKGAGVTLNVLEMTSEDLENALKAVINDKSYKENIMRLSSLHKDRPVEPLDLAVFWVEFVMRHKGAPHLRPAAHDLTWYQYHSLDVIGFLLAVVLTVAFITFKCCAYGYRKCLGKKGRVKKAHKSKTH"}, "UGT1A3": {"target": "T4, UGT1A3 (Homo sapiens, UniProt P35503)", "T4 sequence (P35503 29-534)": "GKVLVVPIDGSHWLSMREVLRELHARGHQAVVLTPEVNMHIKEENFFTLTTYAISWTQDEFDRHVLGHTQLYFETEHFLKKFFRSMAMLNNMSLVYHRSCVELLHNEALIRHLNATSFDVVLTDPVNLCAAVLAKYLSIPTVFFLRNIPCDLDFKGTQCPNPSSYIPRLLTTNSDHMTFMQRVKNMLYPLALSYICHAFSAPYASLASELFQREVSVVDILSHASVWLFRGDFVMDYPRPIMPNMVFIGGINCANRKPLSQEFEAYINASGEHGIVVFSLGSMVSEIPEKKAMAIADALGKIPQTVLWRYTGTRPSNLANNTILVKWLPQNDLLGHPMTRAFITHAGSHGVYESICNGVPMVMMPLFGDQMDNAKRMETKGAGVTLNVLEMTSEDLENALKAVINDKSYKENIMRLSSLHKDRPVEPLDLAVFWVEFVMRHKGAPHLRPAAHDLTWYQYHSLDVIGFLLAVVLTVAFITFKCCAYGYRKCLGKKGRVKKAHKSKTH", "conditions": "in vitro"}, "P-gp": {"target": "P-gp (Homo sapiens, UniProt P08183)", "sequence (P08183 whole entry)": "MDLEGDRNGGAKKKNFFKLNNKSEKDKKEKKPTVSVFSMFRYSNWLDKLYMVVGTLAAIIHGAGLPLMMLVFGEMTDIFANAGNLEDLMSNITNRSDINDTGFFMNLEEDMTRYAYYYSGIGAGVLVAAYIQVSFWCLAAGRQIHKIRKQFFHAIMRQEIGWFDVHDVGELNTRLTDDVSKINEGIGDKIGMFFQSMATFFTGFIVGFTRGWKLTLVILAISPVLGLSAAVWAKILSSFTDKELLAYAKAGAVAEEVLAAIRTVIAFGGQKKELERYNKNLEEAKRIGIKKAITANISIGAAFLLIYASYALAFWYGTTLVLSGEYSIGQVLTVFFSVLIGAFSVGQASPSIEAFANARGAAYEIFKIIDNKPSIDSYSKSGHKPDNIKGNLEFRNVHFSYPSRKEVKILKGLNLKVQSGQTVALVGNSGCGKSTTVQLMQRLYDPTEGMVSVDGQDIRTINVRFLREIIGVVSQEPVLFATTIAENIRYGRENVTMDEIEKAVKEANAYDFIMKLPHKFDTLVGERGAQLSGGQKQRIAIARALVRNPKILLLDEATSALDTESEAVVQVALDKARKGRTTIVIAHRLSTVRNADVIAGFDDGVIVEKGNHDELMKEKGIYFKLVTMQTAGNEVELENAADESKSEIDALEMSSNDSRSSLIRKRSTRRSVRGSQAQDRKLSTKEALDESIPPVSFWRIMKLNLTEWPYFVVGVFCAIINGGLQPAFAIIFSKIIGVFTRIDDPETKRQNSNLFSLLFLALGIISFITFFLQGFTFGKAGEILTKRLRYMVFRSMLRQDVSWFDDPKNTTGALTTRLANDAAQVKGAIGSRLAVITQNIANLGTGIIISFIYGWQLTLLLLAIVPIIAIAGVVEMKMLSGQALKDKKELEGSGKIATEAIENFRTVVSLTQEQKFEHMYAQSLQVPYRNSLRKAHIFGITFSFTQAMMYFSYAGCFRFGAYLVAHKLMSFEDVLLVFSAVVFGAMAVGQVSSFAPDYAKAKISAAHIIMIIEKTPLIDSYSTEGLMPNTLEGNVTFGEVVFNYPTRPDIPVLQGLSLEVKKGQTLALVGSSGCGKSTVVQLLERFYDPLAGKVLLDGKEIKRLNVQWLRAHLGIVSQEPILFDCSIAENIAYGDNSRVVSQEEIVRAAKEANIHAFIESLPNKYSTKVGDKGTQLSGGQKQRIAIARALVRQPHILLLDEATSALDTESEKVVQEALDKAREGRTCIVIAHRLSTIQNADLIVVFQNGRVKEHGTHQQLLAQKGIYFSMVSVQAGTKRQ", "conditions": "in vitro"}, "CYP3A4 [1]": {"target": "T5, CYP3A4 (Homo sapiens, UniProt P08684)", "T5 sequence (P08684 whole entry)": "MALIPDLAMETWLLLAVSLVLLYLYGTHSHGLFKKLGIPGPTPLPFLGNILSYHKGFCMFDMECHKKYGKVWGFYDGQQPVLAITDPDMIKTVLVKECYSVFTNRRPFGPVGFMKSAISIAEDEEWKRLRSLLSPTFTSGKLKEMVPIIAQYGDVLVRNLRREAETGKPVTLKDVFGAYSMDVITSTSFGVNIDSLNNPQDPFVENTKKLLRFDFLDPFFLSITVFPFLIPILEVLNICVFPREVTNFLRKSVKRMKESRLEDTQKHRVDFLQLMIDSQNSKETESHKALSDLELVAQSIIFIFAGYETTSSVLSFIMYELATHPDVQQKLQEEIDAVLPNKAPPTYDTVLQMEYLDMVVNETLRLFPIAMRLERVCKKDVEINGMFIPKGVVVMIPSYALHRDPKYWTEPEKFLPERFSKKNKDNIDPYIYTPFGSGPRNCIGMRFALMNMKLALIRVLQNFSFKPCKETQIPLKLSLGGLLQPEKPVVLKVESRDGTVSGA"}, "[2]": {"system": "cytochrome P450 (CYP) isozymes"}, "CYP3A4 [3]": {"target": "T5, CYP3A4", "remark": "listed apart in the source"}, "HIV-1": {"system": "HIV-1", "conditions": "lymphoblastoid cell lines, MAGI-CCR5 cell line, peripheral blood mononuclear cells"}, "HIV [4]": {"system": "HIV", "conditions": "monocyte-derived macrophages (MDMs)"}, "HIV [5]": {"system": "HIV", "conditions": "CD4+ T-cells isolated from thirteen (13) persons"}},
  "note": "Like-named read-outs stand apart in the source and are kept apart here.",
  "data": [
    {"smiles": "O=C(NCc1c(F)cc(F)cc1F)c1cn2c(c(O)c1=O)C(=O)N1[C@H]3CC[C@H](C3)O[C@@H]1C2", "note": "[Bictegravir, (2R,5S,13aR)-8-hidroxi-7,9-dioxo-N-[(2,4,6-trifluorofenil)metil]-2,3,4,5,7,9,13,13a-octahidro-2,5-metanopirido[1′,2′: 4,5]pirazino[2,1-b][1,3]oxazepina-10-carboxamida]", "values": [
      {"measurement": "substrate of BCRP", "setting": "BCRP", "value": "substrate"},
      {"measurement": "substrate of UGT1A9", "setting": "UGT1A9", "value": "substrate"},
      {"measurement": "metabolic clearance through UGT1A1", "setting": "UGT1A1", "value": "metabolically cleared"},
      {"measurement": "substrate of UGT1A3", "setting": "UGT1A3", "value": "substrate"},
      {"measurement": "substrate of P-gp", "setting": "P-gp", "value": "substrate"},
      {"measurement": "metabolic clearance through CYP3A4", "setting": "CYP3A4 [1]", "value": "metabolically cleared"}
    ]},
    {"smiles": "C[C@@H]1CCO[C@H]2Cn3cc(C(=O)NCc4ccc(F)cc4F)c(=O)c(O)c3C(=O)N12", "note": "[Dolutegravir, (4R,12a5)-N-[(2,4-difluorophenyl)methyl]-7-hydroxy-4-methyl-6,8-dioxo-3 ,4,12,12a-tetrahydro-2H-pyrido[5, 6]pyrazino[2,6-b][1,3]oxazine-9-carboxamide]", "values": [
      {"measurement": "induction or inhibition of cytochrome P450 (CYP) isozymes", "setting": "[2]", "value": "demonstrates induction or inhibition"},
      {"measurement": "extent to which the drug is a substrate of CYP3A4", "setting": "CYP3A4 [3]", "value": "about 15%"}
    ]},
    {"smiles": "Nc1nc(=O)n([C@@H]2CS[C@H](CO)O2)cc1F", "note": "[Emtricitabine, 5-fluoro-1-(2R,5S)-[2-(hydroxymethyl)-1,3oxathiolan-5-yl]cytosine]", "values": [
      {"measurement": "EC50 value against HIV-1", "setting": "HIV-1", "value": "3 to 158", "unit": "ng/mL"},
      {"measurement": "EC50", "setting": "HIV-1; read-out: EC50 value against HIV-1", "value": "0.0013 to 0.64", "unit": "µM"}
    ]},
    {"smiles": "CC(C)OC(=O)[C@H](C)N[P@](=O)(CO[C@H](C)Cn1cnc2c(N)ncnc21)Oc1ccccc1", "note": "[TAF, L-alanine, N-[(S)-[[(1R)-2-(6-amino-9H-purin-9-yl)-1methylethoxy]methyl]phenoxyphosphinyl]-, 1-methylethyl ester, (2E)-2-butenedioate (2:1)]", "values": [
      {"measurement": "EC50", "setting": "HIV [4]; read-out: mean EC50", "value": 0.0097, "unit": "µM"},
      {"measurement": "EC50", "setting": "HIV [4]; read-out: median EC50", "value": 0.0103, "unit": "µM"},
      {"measurement": "EC50", "setting": "HIV [5]; read-out: mean EC50", "value": 0.011, "unit": "µM"},
      {"measurement": "EC50", "setting": "HIV [5]; read-out: median EC50", "value": 0.0102, "unit": "µM"}
    ]}
  ]
}
